6 compounds from ChEMBL document CHEMBL5465560, “Selectivity Literature for EUbOPEN Chemogenomic Library” (2024) can be followed below.

Experiment [1] deals with Histone-lysine N-methyltransferase KMT5B (Homo sapiens) (UniProt Q4FZB7). Kind of experiment: Selectivity interaction (Methyltransferase screen (Scintillation proximity assays)) EUB0000255b SUV420H1.
Experiment [2] addresses T1, Inhibitor of nuclear factor kappa-B kinase subunit beta (Homo sapiens) (UniProt O14920).
T1 sequence (whole entry): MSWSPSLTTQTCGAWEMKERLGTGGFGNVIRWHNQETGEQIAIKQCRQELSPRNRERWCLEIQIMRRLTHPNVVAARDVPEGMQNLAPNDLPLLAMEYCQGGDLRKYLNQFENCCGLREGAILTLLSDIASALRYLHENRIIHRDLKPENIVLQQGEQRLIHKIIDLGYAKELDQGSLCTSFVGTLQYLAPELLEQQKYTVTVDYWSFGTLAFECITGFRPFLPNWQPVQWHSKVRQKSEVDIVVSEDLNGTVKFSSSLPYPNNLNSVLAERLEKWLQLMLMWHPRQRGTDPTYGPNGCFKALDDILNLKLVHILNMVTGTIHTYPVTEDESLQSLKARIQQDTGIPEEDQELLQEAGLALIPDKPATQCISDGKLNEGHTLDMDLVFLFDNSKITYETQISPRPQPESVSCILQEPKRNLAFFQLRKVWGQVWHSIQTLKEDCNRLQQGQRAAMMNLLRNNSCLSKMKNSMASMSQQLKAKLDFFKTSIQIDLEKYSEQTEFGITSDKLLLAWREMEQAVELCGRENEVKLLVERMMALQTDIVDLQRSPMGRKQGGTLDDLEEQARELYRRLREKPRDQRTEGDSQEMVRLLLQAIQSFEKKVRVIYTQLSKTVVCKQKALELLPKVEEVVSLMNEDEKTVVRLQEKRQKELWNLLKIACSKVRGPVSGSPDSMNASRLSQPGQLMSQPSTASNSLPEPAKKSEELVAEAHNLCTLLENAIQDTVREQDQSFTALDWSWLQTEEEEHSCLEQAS
Kind of experiment: Selectivity interaction (ActivX KiNativ screen (kinase selectivity in THP-1 cell lysates)) EUB0000639a IKBKB. It is filed as subcellular. Conditions: lysate, at 5 µM.

Experiment [3] concerns the target T2, Serine/threonine-protein kinase RIO1 (Homo sapiens) (UniProt Q9BRS2).
T2 sequence (whole entry): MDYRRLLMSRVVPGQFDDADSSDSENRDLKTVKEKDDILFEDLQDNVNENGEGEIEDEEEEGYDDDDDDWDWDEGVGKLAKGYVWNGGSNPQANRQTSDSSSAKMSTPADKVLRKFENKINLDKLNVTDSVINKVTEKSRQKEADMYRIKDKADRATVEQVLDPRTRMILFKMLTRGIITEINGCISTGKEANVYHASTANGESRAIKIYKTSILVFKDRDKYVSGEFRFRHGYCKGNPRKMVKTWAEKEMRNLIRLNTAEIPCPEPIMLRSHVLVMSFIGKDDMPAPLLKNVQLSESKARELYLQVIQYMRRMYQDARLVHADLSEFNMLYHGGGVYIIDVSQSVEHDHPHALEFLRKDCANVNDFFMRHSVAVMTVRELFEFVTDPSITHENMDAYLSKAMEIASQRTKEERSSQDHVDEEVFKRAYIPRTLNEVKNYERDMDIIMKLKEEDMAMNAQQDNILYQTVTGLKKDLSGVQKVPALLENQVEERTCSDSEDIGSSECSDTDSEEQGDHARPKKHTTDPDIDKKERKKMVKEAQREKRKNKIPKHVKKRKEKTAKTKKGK
Kind of experiment: Selectivity interaction (Kinase panel (DSF assay)) EUB0001559a RIOK1. On the technique in general: In DSF a fluorescence change marks the thermal transition of the protein.

In experiment [4] the target is T3, Serine/threonine-protein kinase 17B (Homo sapiens) (UniProt O94768).
T3 sequence (whole entry): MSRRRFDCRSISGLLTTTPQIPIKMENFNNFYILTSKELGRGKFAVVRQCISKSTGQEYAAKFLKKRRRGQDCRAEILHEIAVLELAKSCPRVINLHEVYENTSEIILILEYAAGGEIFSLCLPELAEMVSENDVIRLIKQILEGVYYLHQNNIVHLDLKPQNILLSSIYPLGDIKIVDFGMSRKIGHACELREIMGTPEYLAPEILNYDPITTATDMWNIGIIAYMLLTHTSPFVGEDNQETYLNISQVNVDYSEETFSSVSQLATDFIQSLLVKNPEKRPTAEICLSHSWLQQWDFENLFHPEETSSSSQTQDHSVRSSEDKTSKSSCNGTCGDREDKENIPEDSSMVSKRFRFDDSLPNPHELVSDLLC
As to the kind of experiment: Selectivity interaction (KinomeScan (DiscoverX)) EUB0000045b STK17B.

Experiment [5] addresses Maternal embryonic leucine zipper kinase (Homo sapiens) (UniProt Q14680). Kind of experiment: Selectivity interaction (Ambit KINOMEscan and KiNATiv profiling in Jurkat cells) EUB0000090b MELK. The experiment is classed as cell-based. Conditions: at 1 µM.
The target in experiment [6] is T4, Serine/threonine-protein kinase D1 (Homo sapiens) (UniProt Q15139).
T4 sequence (whole entry): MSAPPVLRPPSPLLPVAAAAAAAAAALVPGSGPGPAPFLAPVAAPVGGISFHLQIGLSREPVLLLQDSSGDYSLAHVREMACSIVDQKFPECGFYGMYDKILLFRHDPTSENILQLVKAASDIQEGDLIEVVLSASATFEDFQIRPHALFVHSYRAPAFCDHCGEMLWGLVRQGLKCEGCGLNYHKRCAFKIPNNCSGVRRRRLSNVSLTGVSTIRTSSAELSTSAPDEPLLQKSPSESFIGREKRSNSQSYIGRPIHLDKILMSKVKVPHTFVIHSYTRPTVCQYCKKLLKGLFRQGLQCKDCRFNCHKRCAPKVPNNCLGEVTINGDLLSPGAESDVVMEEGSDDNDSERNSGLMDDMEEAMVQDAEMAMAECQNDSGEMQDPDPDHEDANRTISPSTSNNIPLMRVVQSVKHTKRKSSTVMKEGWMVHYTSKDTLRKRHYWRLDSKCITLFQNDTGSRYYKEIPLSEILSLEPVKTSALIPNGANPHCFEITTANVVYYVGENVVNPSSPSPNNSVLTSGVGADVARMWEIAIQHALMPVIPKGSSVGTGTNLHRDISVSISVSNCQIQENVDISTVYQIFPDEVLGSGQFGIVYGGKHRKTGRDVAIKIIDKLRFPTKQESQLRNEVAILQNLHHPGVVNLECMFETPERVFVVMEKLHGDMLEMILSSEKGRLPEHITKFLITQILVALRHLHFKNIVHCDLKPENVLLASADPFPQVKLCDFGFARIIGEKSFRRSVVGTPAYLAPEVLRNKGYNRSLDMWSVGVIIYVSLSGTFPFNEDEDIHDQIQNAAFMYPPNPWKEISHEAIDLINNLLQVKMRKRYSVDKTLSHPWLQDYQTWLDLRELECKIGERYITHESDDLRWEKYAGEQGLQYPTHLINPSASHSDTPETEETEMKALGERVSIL
As to the kind of experiment: Selectivity interaction (Ambit KINOMEscan and KiNATiv profiling in Jurkat cells) EUB0000090b PRKD1. It is filed as cell-based. Conditions: at 1 µM.

In experiment [7] the target is Mitogen-activated protein kinase 14 (Homo sapiens, UniProt Q16539). Kind of experiment: Selectivity interaction (KinomeScan (DiscoverX)) EUB0001049a MAPK14. Conditions: at 1 µM.
Chain of Mitogen-activated protein kinase 14 (Q16539 whole entry): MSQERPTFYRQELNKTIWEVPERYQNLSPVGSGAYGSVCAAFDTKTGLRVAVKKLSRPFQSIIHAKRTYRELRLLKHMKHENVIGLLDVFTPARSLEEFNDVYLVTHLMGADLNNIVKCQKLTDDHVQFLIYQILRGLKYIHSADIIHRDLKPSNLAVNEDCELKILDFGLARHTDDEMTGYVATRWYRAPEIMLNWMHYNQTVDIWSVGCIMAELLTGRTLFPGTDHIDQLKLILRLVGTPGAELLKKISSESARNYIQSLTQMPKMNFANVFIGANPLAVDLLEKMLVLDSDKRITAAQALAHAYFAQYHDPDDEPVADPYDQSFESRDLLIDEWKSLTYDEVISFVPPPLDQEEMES

Chain of Histone-lysine N-methyltransferase KMT5B (Homo sapiens) (Q4FZB7 whole entry, looked up): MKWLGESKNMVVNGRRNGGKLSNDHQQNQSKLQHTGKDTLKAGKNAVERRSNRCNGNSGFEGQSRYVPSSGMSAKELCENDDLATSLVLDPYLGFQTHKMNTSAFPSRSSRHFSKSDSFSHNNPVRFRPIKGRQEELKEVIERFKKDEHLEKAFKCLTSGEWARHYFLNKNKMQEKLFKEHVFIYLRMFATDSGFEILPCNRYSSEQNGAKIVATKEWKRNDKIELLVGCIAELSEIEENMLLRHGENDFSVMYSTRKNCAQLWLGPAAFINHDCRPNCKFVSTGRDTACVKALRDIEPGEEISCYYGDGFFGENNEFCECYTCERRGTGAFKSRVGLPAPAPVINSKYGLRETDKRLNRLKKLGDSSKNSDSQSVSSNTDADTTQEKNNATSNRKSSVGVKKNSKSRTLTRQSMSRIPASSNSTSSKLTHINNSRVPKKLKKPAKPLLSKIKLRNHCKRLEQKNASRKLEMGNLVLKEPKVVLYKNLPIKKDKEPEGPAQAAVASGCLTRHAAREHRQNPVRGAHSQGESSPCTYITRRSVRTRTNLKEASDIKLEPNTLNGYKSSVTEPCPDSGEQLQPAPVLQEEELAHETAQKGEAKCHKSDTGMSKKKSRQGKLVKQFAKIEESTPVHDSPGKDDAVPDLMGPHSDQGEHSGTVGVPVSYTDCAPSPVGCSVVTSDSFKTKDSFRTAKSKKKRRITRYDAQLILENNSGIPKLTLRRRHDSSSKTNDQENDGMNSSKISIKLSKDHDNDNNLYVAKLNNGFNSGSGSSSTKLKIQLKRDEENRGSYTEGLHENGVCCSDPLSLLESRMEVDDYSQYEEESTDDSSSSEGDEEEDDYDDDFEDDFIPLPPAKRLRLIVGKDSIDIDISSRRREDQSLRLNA
Chain of Maternal embryonic leucine zipper kinase (Homo sapiens) (Q14680 whole entry, looked up): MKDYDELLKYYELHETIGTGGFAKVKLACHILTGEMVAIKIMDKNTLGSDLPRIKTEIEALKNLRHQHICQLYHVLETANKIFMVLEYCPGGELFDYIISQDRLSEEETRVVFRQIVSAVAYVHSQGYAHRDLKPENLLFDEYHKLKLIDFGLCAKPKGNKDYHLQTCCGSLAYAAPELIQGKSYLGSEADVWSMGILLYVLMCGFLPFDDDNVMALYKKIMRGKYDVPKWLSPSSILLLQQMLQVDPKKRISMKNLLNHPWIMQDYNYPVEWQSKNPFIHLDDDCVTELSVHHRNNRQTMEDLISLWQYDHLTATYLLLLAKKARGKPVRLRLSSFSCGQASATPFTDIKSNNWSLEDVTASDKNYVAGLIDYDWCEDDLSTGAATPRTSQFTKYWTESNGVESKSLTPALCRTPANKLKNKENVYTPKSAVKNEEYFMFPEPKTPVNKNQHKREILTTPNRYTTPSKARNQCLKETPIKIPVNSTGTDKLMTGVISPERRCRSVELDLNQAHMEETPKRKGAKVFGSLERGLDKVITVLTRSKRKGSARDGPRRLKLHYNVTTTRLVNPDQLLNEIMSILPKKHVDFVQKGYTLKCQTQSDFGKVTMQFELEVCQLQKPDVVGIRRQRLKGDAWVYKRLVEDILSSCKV

Turning to `COCCN1CCC(c2cc(CN(C)C(=O)c3cccc(Oc4ccccc4)c3)ccn2)CC1`, the % activity was greater than 95% in experiment [1] (at 1 µM) and greater than 90% in experiment [1] (at 10 µM).

Take `CC[C@@H]1[C@H](F)C(=O)N[C@@H]1COc1nccc2cc(C(N)=O)c(OC)cc12` [ZIMLOVISERTIB]: the % of inhibition in experiment [2] was -9.2%. In experiment [3], `CN(C(=O)c1cnn2cccnc12)c1cc2c(cc1N1CCOCC1)C(=O)N(C[C@@H](F)C(C)(C)O)C2` showed a dTM of -0.2 K. Regarding `C=CC(=O)Nc1cc(-n2c(=O)ccc3cnc4ccc(-c5ccc(NS(C)(=O)=O)cc5)cc4c32)ccc1C`, the % of control in experiment [4] (at 1 µM) and in experiment [4] (at 10 µM) was 100% in each case. On to `CN(C)C/C=C/C(=O)Nc1ccc(C(=O)N2CCCC(Nc3ncc(Cl)c(-c4c[nH]c5ccccc45)n3)C2)cc1` (centres undefined), for which the % of control came to 75% in experiment [5] and 31% in experiment [6]. `COc1cc(Nc2nc(C)cc(-c3cnn4nc(OC)ccc34)n2)cc(C(F)(F)F)c1` had a % of control in experiment [7] of 87%.
